Test results published in US20140093935A1, “CHARGED TRIPLET-STATE QUENCHERS FOR MITIGATION OF PHOTO-INDUCED DAMAGE” (Pacific Biosciences of California, Inc., priority 2012, published 2014).

Key:
fluorophore blinking = assay: Sequencing-by-synthesis assay, interpulse duration / very short dark periods (blinkiness); assay type: biochemical; conditions: 3 μM and 5 μM of compound compared with 1 mM of the charged nitrophenyl photoprotective moiety; FIG. 7
Protocol: One measure of photoprotective benefit is monitoring “blinkiness” of dyes in a reaction mixture. For example, in a reaction in which dye-labeled reactants are being observed as they cyclically interact with an unlabeled reactant, the time between interaction events is a length of time during which no dye is present, or a “dark” period. Given certain reaction parameters, e.g., diffusion rates and concentration of the labeled reactant, a distribution of dark periods is measured that centers around a value that is an average time between interaction events. This distribution curve can be perturbed by dye blinking since such blinking introduces a very brief dark period during an interaction event. These blinking-induced dark periods introduce an aberrant peak in the dark period distribution resulting in a peak that is outside of the normal distribution and representing dark periods that are too short to be explained by the reaction parameters. Blinkiness is increased when a dye is excited to the triplet state and there is insufficient photo-induced damage mitigation to quickly return it to a non-triplet state. […]
Experiments were conducted using a single-molecule, real-time (SMRT®) sequencing instrument. […] Sequencing was initiated and reactions were monitored in real time. The fluorescence emissions were recorded, processed, and analyzed. […]

phi29 polymerase enzyme = assay: Sequencing-by-synthesis assay, polymerase survival as a function of number of bases sequenced; assay type: biochemical
Excerpt: In various embodiments, the amount of photo-induced damage that occurs in a reaction mixture of the invention is detectably less than the amount of photo-induced damage that occurs in the absence of a photoprotective additive according to Formula I or Formula II. Photo-induced damage can be measured in different ways, depending on the particular analytical reaction. One way is by monitoring blinkiness of a fluorescent dye in the reaction, as further explained above. In other embodiments, the amount of photo-induced damage is measured as a length of time a reaction can proceed, e.g., the survival time for an enzyme catalyzing a reaction. For example, in a nucleic acid sequencing-by-synthesis reaction, a proxy for the level of photo-induced damage can be the length of the nascent strand synthesized and/or the length of the sequencing read generated. […]
Experiments were conducted using a single-molecule, real-time (SMRT®) sequencing instrument. […] Sequencing was initiated and reactions were monitored in real time. The fluorescence emissions were recorded, processed, and analyzed.
Further analysis of the fluorescent emissions included measurement of polymerase enzyme survival in the reaction as a function of number of bases sequenced. Another measure of photo-induced damage was the average read length produced in the sequencing reaction.

Question: O=C(CNc1cccc([N+](=O)[O-])c1)NCCCCCCOP(=O)(O)OP(=O)(O)OP(=O)(O)OP(=O)(O)OP(=O)(O)O [TSQ001-6C-5P] was tested. Which “reducing the incidence of very short dark periods (proxy for blinkiness)” value (fluorophore blinking) did it give?
Answer: as effective

Question: And the “increasing survival of a polymerase enzyme” value (phi29 polymerase enzyme; 1.5, 3, and 5 μM of compound compared with 1 mM of the charged nitrophenyl photoprotective moiety, FIG. 8)?
Answer: more effective

Question: And the “polymerase survival in a sequencing-by-synthesis reaction is increased” value (phi29 polymerase enzyme; as compared to the photoprotective moiety alone, by various measures (data not shown))?
Answer: 15-25%
